Test results from article PMC8591201, “Anti-Tumor Activity of AZD4547 Against NTRK1 Fusion Positive Cancer Cells Through Inhibition of NTRKs” (Frontiers in Oncology, 2021).

How the values were obtained:
Experiment in all cases: cells
Design in all cases: Anti-proliferation, 10-point dose response, CellTiter-Glo luminescence (MTT stated for KM12(Luc)), GI50 fitted in Prism
OCI-AML3 = settings: Homo sapiens, OCI-AML-3, 72 h, read-out: GI50 (µM) a
HCT15 = settings: Homo sapiens, HCT-15, 72 h, read-out: GI50 (µM) a
MDA-MB-468 = settings: Homo sapiens, MDA-MB-468, 72 h, read-out: GI50 (µM) a
SNU484 = settings: SNU-484, 72 h, read-out: GI50 (µM) a
PANC-1 = settings: Homo sapiens, PANC-1, 72 h, read-out: GI50 (µM) a
CAPAN-1 = settings: Homo sapiens, CAPAN-1, 72 h, read-out: GI50 (µM) a
NCI-H2228 = settings: Homo sapiens, NCI-H2228, 72 h, read-out: GI50 (µM) a
DLD-1 = settings: Homo sapiens, DLD-1, 72 h, read-out: GI50 (µM) a
HCT-116 = settings: Homo sapiens, HCT-116, 72 h, read-out: GI50 (µM) a
HeLa = settings: Homo sapiens, HeLa, 72 h, read-out: GI50 (µM) a
OVCAR-8 = settings: Homo sapiens, OVCAR-8, 72 h, read-out: GI50 (µM) a
A549 = settings: Homo sapiens, A549, 72 h, read-out: GI50 (µM) a

Q: How did the GI50 (OCI-AML3) turn out when `COc1cc(CCc2cc(NC(=O)c3ccc(N4C[C@@H](C)N[C@@H](C)C4)cc3)n[nH]2)cc(OC)c1` [AZD4547] was run?
A: Its GI50 is 6.75 µM.

Q: And the GI50 (HCT15)?
A: Its GI50 is 15.8 µM.

Q: And the GI50 (MDA-MB-468)?
A: Its GI50 is 11.5 µM.

Q: What about the GI50 (SNU484) of the same compound?
A: Its GI50 is 24.6 µM.

Q: What about the GI50 (PANC-1) of the same compound?
A: The GI50 was 8.65 µM.

Q: What about the GI50 (CAPAN-1) of the same compound?
A: The GI50 was 17.5 µM.

Q: What about the GI50 (NCI-H2228) of the same compound?
A: The GI50 was 17.2 µM.

Q: What about the GI50 (DLD-1) of the same compound?
A: Its GI50 is 27.5 µM.

Q: And the GI50 (HCT-116)?
A: Its GI50 is 7.13 µM.

Q: What about the GI50 (HeLa) of the same compound?
A: The GI50 was 4.38 µM.

Q: What about the GI50 (OVCAR-8) of the same compound?
A: Its GI50 is 4.97 µM.

Q: And the GI50 (A549)?
A: Its GI50 is 11.6 µM.
